In US9957271B2, “Substituted bicyclic aza-heterocycles and analogues as sirtuin modulators” (GlaxoSmithKline, LLC, priority 2012, dated 2018):

Legend:
SIRT1 [1] = target: T1, SIRT1 (Homo sapiens, UniProt Q96EB6); test: Trp mass spectrometry assay of SIRT1 activity; assay type: biochemical; conditions: for Emax: read-out: Trp % Fold Act
T1 sequence (Q96EB6 1-747): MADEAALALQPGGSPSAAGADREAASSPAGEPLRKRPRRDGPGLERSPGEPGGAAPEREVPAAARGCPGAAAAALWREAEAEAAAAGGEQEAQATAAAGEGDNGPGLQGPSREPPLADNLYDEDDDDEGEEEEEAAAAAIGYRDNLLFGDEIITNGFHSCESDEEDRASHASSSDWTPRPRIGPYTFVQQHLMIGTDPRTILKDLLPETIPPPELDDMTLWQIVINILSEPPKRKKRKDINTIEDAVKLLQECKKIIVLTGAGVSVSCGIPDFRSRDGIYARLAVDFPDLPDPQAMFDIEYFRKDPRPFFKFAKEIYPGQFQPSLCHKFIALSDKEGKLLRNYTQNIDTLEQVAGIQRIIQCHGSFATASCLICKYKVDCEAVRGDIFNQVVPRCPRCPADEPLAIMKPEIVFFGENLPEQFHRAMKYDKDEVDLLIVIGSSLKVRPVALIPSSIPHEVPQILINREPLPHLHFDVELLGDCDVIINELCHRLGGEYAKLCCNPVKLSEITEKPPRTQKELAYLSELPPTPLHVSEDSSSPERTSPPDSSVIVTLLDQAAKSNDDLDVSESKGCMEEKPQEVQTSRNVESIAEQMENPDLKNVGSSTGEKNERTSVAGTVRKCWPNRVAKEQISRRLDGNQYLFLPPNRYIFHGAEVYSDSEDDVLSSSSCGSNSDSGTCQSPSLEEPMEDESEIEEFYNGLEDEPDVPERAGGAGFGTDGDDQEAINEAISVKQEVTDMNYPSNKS
In short: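 His-tagged SIRT1 expressed in E. coli BL21(DE3), 10 nM, incubated 25 min at 25° C. with 0.5 μM Ac-RHKK(Ac)W-NH2 peptide and 120 μM βNAD+ in 50 mM HEPES pH 7.5, […], 1 mM DTT, 0.05% BSA; formic acid stop. OAADPR or deacetylated peptide measured by mass spectrometry; EC1.5 and percent maximum activation versus DMSO control.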

SIRT1 [2] = target: T1, SIRT1; test: TAMRA based mass spectrometry assay of SIRT1 activity; assay type: biochemical; conditions: for Emax: read-out: TAMRA % Fold Act
In short: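 Recombinant N-terminal His-tagged human SIRT1 (10 nM, E. coli) incubated 25 min at 25 °C with 0.5 μM 5TMR-labelled p53-derived acetyl-peptide and 120 μM βNAD+ in Tris-acetate pH 8 buffer with DTT and 0.05% BSA, compound at varying concentrations. Stopped with formic acid; deacetylated peptide or OAADPR measured by mass spectrometry relative to DMSO controls.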

[3] = Trp peptide substrate, concentration giving 150% activation of SIRT1
[4] = Trp peptide substrate, percent maximum fold activation
[5] = TAMRA peptide substrate, concentration giving 150% activation of SIRT1
[6] = TAMRA peptide substrate, percent maximum fold activation
[7] = Trp assay, concentration giving 150% activation of SIRT1
[8] = Trp assay, percent maximum fold activation
[9] = TAMRA assay, concentration giving 150% activation of SIRT1
[10] = TAMRA assay, percent maximum fold activation
[11] = concentration of test compound giving 150% activation of SIRT1, Trp peptide substrate
[12] = percent maximum fold activation of SIRT1, Trp peptide substrate
[13] = concentration of test compound giving 150% activation of SIRT1, TAMRA peptide substrate
[14] = percent maximum fold activation of SIRT1, TAMRA peptide substrate

Row | Trp EC1.5 (SIRT1 [1]; [3]) | Emax (SIRT1 [1]; [4]) [%] | TAMRA EC1.5 (SIRT1 [2]; [5]) | Emax (SIRT1 [2]; [6]) [%] | Trp EC1.5 (μM) (SIRT1 [1]; [7]) | Emax (SIRT1 [1]; [8]) [%] | TAMRA EC1.5 (μM) (SIRT1 [2]; [9]) | Emax (SIRT1 [2]; [10]) [%] | SMILES | further results
1 | C (EC1.5>25 μM) | < 350 | A (EC1.5<1 μM) | ≥ 350 | – | – | – | – | Cc1ccnc(C(=O)Nc2cnn3ccc(-c4ccccc4C(F)(F)F)nc23)c1 [Compound 523] | –
2 | B (EC1.5 1-25 μM) | < 350 | B (EC1.5 1-25 μM) | ≥ 350 | – | – | – | – | O=C(Nc1ccncc1F)c1cnn2ccc(-c3ccccc3C(F)(F)F)nc12 [Compound 517] | –
3 | – | – | – | – | B (EC1.5 1-25 μM) | < 350 | A (EC1.5<1 μM) | ≥ 350 | Cc1cc(NC(=O)c2cnc3ccc(-c4ccccc4OC[C@H](O)CO)nn23)nc(C)n1 [Compound 832] | –
4 | – | – | – | – | – | < 350 | – | < 350 | Cc1nc2ccc(-c3ccccc3F)nn2c1C(=O)Nc1cccnn1 [Compound 706] | –
5 | – | – | – | – | C (EC1.5>25 μM) | < 350 | B (EC1.5 1-25 μM) | ≥ 350 | O=C(Nc1cnn2ccc(-c3ccccc3C(F)(F)F)nc12)c1ccncn1 [Compound 254] | –
6 | – | – | – | – | C (EC1.5>25 μM) | < 350 | B (EC1.5 1-25 μM) | ≥ 350 | O=C(Nc1cnn2ccc(-c3ccccc3OC(F)(F)F)nc12)c1cscn1 [Compound 785] | –
7 | – | – | – | – | – | – | – | – | Cc1noc(C)c1-c1ccc2ncc(C(=O)Nc3cccc(N4CCOCC4)n3)n2n1 [Compound 53] | Trp EC1.5 (μM) (SIRT1 [1]; [11]): B (EC1.5 1-25 μM); Emax (SIRT1 [1]; [12]): < 350%; TAMRA EC1.5 (μM) (SIRT1 [2]; [13]): B (EC1.5 1-25 μM); Emax (SIRT1 [2]; [14]): < 350%
8 | – | – | – | – | B (EC1.5 1-25 μM) | ≥ 350 | A (EC1.5<1 μM) | ≥ 350 | Cc1ccc(NC(=O)c2cnn3ccc(-c4ccccc4C(F)(F)F)nc23)nc1 [Compound 618] | –
9 | A (EC1.5<1 μM) | ≥ 350 | B (EC1.5 1-25 μM) | ≥ 350 | – | – | – | – | O=C(Nc1cccc(O)n1)c1cnn2ccc(-c3ccccc3OC(F)(F)F)nc12 [Compound 580] | –
10 | – | – | – | – | C (EC1.5>25 μM) | < 350 | C (EC1.5>25 μM) | < 350 | O=C(Nc1cccnc1N1CCOCC1)c1cnc2ccc(-c3ccccc3C(F)(F)F)nn12 [Compound 215] | –
11 | – | – | – | – | – | – | – | – | O=C(Nc1ncccn1)c1cnc2ccc(-c3ccccc3C(F)(F)F)nn12 [Compound 84] | Trp EC1.5 (μM) (SIRT1 [1]; [11]): B (EC1.5 1-25 μM); Emax (SIRT1 [1]; [12]): ≥ 350%; TAMRA EC1.5 (μM) (SIRT1 [2]; [13]): B (EC1.5 1-25 μM); Emax (SIRT1 [2]; [14]): ≥ 350%
12 | – | – | – | – | A (EC1.5<1 μM) | ≥ 350 | A (EC1.5<1 μM) | ≥ 350 | Cc1cc(-c2ccccc2C(F)(F)F)nn2c(C(=O)Nc3nccc(N4CCCC4)n3)cnc12 [Compound 647] | –
13 | B (EC1.5 1-25 μM) | ≥ 350 | A (EC1.5<1 μM) | ≥ 350 | – | – | – | – | Cc1nc2ccc(-c3ccccc3C(F)(F)F)nn2c1C(=O)Nc1ccncn1 [Compound 461] | –
14 | – | – | – | – | C (EC1.5>25 μM) | < 350 | A (EC1.5<1 μM) | ≥ 350 | Cc1nc(C(=O)Nc2cnc3ccc(-c4ccccc4OC(F)(F)F)nn23)cs1 [Compound 317] | –
15 | C (EC1.5>25 μM) | < 350 | B (EC1.5 1-25 μM) | < 350 | – | – | – | – | Cc1cc(NC(=O)c2cnc3ccc(-c4cccc(OCC(O)CO)c4)nn23)cc(C)n1 (centres unmarked) [Compound 418] | –
16 | A (EC1.5<1 μM) | < 350 | A (EC1.5<1 μM) | ≥ 350 | – | – | – | – | Cc1nc(C(=O)Nc2cnc3c(C)cc(-c4ccccc4C(F)(F)F)nn23)c(C)s1 [Compound 413] | –
17 | – | – | – | – | A (EC1.5<1 μM) | ≥ 350 | A (EC1.5<1 μM) | ≥ 350 | Cc1ccnc(NC(=O)c2c(C)nn3ccc(-c4ccccc4C(F)(F)F)nc23)c1 [Compound 683] | –

Row | Trp EC1.5 (SIRT1 [1]; [3]) | Emax (SIRT1 [1]; [4]) [%] | TAMRA EC1.5 (SIRT1 [2]; [5]) | Emax (SIRT1 [2]; [6]) [%] | Trp EC1.5 (μM) (SIRT1 [1]; [7]) | Emax (SIRT1 [1]; [8]) [%] | TAMRA EC1.5 (μM) (SIRT1 [2]; [9]) | Emax (SIRT1 [2]; [10]) [%] | SMILES | further results
18 | – | – | – | – | – | – | – | – | O=C(Nc1cccnc1)c1cnc2ccc(-c3cccc(F)c3Cl)nn12 [Compound 183] | Trp EC1.5 (μM) (SIRT1 [1]; [11]): C (EC1.5>25 μM); Emax (SIRT1 [1]; [12]): < 350%; TAMRA EC1.5 (μM) (SIRT1 [2]; [13]): B (EC1.5 1-25 μM); Emax (SIRT1 [2]; [14]): < 350%
19 | – | – | – | – | B (EC1.5 1-25 μM) | < 350 | A (EC1.5<1 μM) | ≥ 350 | O=C(Nc1cnn2ccc(-c3ccccc3C(F)(F)F)nc12)c1ccccn1 [Compound 249] | –
20 | – | – | – | – | B (EC1.5 1-25 μM) | < 350 | A (EC1.5<1 μM) | ≥ 350 | Cc1nccc(C(=O)Nc2cnn3ccc(-c4ccccc4C(F)(F)F)nc23)n1 [Compound 794] | –
21 | – | – | – | – | B (EC1.5 1-25 μM) | < 350 | B (EC1.5 1-25 μM) | ≥ 350 | Cc1cncc(C(=O)Nc2cnc3ccc(-c4ccccc4C(F)(F)F)nn23)c1 [Compound 231] | –
22 | A (EC1.5<1 μM) | ≥ 350 | A (EC1.5<1 μM) | ≥ 350 | – | – | – | – | Cc1cc(-c2ccccc2C(F)(F)F)nn2c(NC(=O)c3cccc(N4CCOCC4)n3)cnc12 [Compound 425] | –
23 | A (EC1.5<1 μM) | ≥ 350 | A (EC1.5<1 μM) | ≥ 350 | – | – | – | – | Cc1nc2c(C)cc(-c3ccccc3C(F)(F)F)nn2c1C(=O)Nc1ccncc1F [Compound 473] | –
24 | – | – | – | – | A (EC1.5<1 μM) | < 350 | A (EC1.5<1 μM) | ≥ 350 | Cc1cnc(NC(=O)c2c(C)nc3ccc(-c4ccccc4OC[C@H](O)CO)nn23)s1 [Compound 829] | –
25 | – | – | – | – | – | – | – | – | Cc1nc2ccc(-c3ccccc3C(F)(F)F)nn2c1C(=O)Nc1cccc(N2CCC2)n1 [Compound 69] | Trp EC1.5 (μM) (SIRT1 [1]; [11]): B (EC1.5 1-25 μM); Emax (SIRT1 [1]; [12]): ≥ 350%; TAMRA EC1.5 (μM) (SIRT1 [2]; [13]): A (EC1.5<1 μM); Emax (SIRT1 [2]; [14]): ≥ 350%
26 | A (EC1.5<1 μM) | ≥ 350 | A (EC1.5<1 μM) | ≥ 350 | – | – | – | – | O=C(Nc1cccc(N2CCOCC2)n1)c1ncn2ccc(-c3ccccc3C(F)(F)F)nc12 [Compound 454] | –
27 | A (EC1.5<1 μM) | ≥ 350 | A (EC1.5<1 μM) | ≥ 350 | – | – | – | – | COc1nccc(NC(=O)c2cnc3ccc(-c4ccccc4OC(F)(F)F)nn23)n1 [Compound 430] | –
28 | B (EC1.5 1-25 μM) | < 350 | C (EC1.5>25 μM) | < 350 | – | – | – | – | Cc1nn2ccc(-c3ccccc3C(F)(F)F)nc2c1NC(=O)c1cnccn1 [Compound 571] | –
29 | A (EC1.5<1 μM) | ≥ 350 | A (EC1.5<1 μM) | ≥ 350 | – | – | – | – | COc1cccc(C(=O)Nc2cnc3ccc(-c4ccccc4C(F)(F)F)nn23)n1 [Compound 437] | –
30 | C (EC1.5>25 μM) | < 350 | A (EC1.5<1 μM) | ≥ 350 | – | – | – | – | Cc1cc2ncc(NC(=O)c3cnccn3)n2nc1-c1ccccc1C(F)(F)F [Compound 442] | –
31 | – | – | – | – | B (EC1.5 1-25 μM) | < 350 | B (EC1.5 1-25 μM) | < 350 | Cc1nc2ccc(-c3ccccc3C(F)(F)F)nn2c1C(=O)Nc1ccnn1C(C)(C)C [Compound 672] | –
32 | – | – | – | – | C (EC1.5>25 μM) | < 350 | A (EC1.5<1 μM) | ≥ 350 | Cc1cccnc1C(=O)Nc1cnn2ccc(-c3ccccc3C(F)(F)F)nc12 [Compound 746] | –
33 | C (EC1.5>25 μM) | < 350 | B (EC1.5 1-25 μM) | ≥ 350 | – | – | – | – | O=C(Nc1cnn2ccc(-c3ccccc3OC(F)(F)F)nc12)c1cnccn1 [Compound 584] | –
34 | B (EC1.5 1-25 μM) | < 350 | A (EC1.5<1 μM) | ≥ 350 | – | – | – | – | Cc1cc(NC(=O)c2cnc3ccc(-c4ccccc4OC(F)(F)F)nn23)nc(C)n1 [Compound 398] | –
